Data: US11584714B2 (priority 2018, dated 2023)
pIC50, pKi: −log10 of the molar value. Structures can show the parent of a compound that is named as a salt. Where two headings read alike, the source gives them in different places.

How the values were obtained:
Type in all cases: biochemical
Lectin Pathway = test: Lectin pathway activation assay in human serum (mannan-coated ELISA, C3c detection); conditions: 1% human serum
human α-thrombin = human α-thrombin (Homo sapiens (Human), UniProt P00734); test: Enzymatic assay for thrombin (Boc-VPR-AMC substrate); conditions: for pKi: read-out: Thrombin Ki; for Ki: Thrombin Ki (μM)
MASP-2 (CCP1-CCP2-SP) = MASP-2 (CCP1-CCP2-SP) (Homo sapiens (Human), UniProt O00187); test: biochemical; conditions: for pKi: read-out: MASP-2 Ki; for MASP-2 vs. thrombin selectivity: selectivity for MASP-2 inhibition versus thrombin
MASP-2 (CCP1-CCP2-SP), sequence (O00187 445-686): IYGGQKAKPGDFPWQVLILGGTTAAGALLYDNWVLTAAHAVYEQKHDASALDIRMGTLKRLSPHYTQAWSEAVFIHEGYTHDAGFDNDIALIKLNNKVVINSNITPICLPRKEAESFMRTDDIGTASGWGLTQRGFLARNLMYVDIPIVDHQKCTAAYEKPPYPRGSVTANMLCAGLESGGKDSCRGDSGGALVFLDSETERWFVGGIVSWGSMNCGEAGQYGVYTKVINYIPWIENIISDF

mMASP-2 = mMASP-2 (Mus musculus (Mouse), UniProt Q91WP0); test: Enzymatic inhibition of mMASP-2; conditions: read-out: mMASP-2 Ki
mMASP-2, sequence (Q91WP0 20-685): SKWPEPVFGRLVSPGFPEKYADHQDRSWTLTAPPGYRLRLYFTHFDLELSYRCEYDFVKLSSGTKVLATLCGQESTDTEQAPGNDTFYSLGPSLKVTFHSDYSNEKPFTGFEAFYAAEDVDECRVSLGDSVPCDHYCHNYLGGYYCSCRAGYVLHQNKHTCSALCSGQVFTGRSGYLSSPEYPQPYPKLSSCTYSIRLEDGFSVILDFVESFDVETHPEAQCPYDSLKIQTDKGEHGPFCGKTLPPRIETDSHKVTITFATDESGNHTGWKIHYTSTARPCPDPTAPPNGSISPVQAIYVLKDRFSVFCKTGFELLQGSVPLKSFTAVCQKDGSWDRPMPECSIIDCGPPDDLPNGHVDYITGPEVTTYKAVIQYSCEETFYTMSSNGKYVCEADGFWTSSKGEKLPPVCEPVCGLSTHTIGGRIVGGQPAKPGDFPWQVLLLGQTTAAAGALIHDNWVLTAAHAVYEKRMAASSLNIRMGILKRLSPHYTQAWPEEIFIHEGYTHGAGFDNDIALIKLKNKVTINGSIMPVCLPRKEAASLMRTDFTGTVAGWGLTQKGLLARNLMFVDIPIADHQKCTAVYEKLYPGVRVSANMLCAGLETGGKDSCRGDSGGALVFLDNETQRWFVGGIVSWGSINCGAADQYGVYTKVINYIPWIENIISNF

C[C@H](NC(=O)[C@H]1C[C@H](Cc2cccc3ccccc23)CN1)C(=O)NCc1cnc2[nH]cc(Cl)c2c1 [compound 1415, (2R,4S)—N—((S)-1-(((3-Chloro-1H-pyrrolo[2,3-b]pyridin-5-yl)methyl)amino)-1-oxopropan-2-yl)-4-(naphthalen-1-ylmethyl)pyrrolidine-2-carboxamide Hydrochloride]
pIC50 (Lectin Pathway): 6.30 to 7.30 | pKi (human α-thrombin): > 6.30 | pKi (MASP-2 (CCP1-CCP2-SP)): > 6.30 | MASP-2 vs. thrombin selectivity (MASP-2 (CCP1-CCP2-SP)): * (≥1.0 to <5.0-fold) | pKi (mMASP-2): > 6.30

Cc1cc(C)cc(C[C@@H]2CN[C@@H](C(=O)N[C@@H](C)C(=O)NCc3cc(Cl)ccc3-n3cnnn3)C2)c1 [compound 1416, (2R,4S)—N—((S)-1-((5-Chloro-2-(1H-tetrazol-1-yl)benzyl)amino)-1-oxopropan-2-yl)-4-(3,5-dimethylbenzyl)pyrrolidine-2-carboxamide Hydrochloride]
pIC50 (Lectin Pathway): 6.30 to 7.30 | pKi (human α-thrombin): > 6.30 | pKi (MASP-2 (CCP1-CCP2-SP)): > 6.30 | MASP-2 vs. thrombin selectivity (MASP-2 (CCP1-CCP2-SP)): ** (≥5.0 to <25-fold) | pKi (mMASP-2): > 6.30

Cc1nc(N)ccc1CNC(=O)[C@H](C)NC(=O)[C@H]1C[C@H](Cc2ccc(Cl)c(Cl)c2)CN1 [compound 1422, (2R,4S)—N—((S)-1-(((6-Amino-2-methylpyridin-3-yl)methyl)amino)-1-oxopropan-2-yl)-4-(3,4-dichlorobenzyl)pyrrolidine-2-carboxamide Dihydrochloride]
pIC50 (Lectin Pathway): 5.30 to 6.30 | Ki (human α-thrombin): 2.5 to 10 µM | pKi (MASP-2 (CCP1-CCP2-SP)): > 6.30 | MASP-2 vs. thrombin selectivity (MASP-2 (CCP1-CCP2-SP)): **** (≥100-fold) | pKi (mMASP-2): > 6.30

Cc1nc(N)ccc1CNC(=O)[C@H](C)NC(=O)[C@H]1C[C@H](Cc2ccc(F)c3ccccc23)CN1 [compound 1423, (2R,4S)—N—((S)-1-(((6-Amino-2-methylpyridin-3-yl)methyl)amino)-1-oxopropan-2-yl)-4-((4-fluoronaphthalen-1-yl)methyl)pyrrolidine-2-carboxamide Dihydrochloride]
pIC50 (Lectin Pathway): 6.30 to 7.30 | Ki (human α-thrombin): 2.5 to 10 µM | pKi (MASP-2 (CCP1-CCP2-SP)): > 6.30 | MASP-2 vs. thrombin selectivity (MASP-2 (CCP1-CCP2-SP)): **** (≥100-fold) | pKi (mMASP-2): > 6.30

Cc1nc(N)ccc1CNC(=O)[C@H](C)NC(=O)[C@H]1C[C@H](Cc2ccc(C#N)cc2)CN1 [compound 1428, (2R,4S)—N—((S)-1-(((6-Amino-2-methylpyridin-3-yl)methyl)amino)-1-oxopropan-2-yl)-4-(4-cyanobenzyl)pyrrolidine-2-carboxamide Di-trifluoroacetate salt]
pIC50 (Lectin Pathway): 5.30 to 6.30 | Ki (human α-thrombin): 10 to 25 µM | pKi (MASP-2 (CCP1-CCP2-SP)): > 6.30 | MASP-2 vs. thrombin selectivity (MASP-2 (CCP1-CCP2-SP)): **** (≥100-fold) | pKi (mMASP-2): 5.60 to 6.30

Cc1nc(N)ccc1CNC(=O)[C@H](C)NC(=O)[C@H]1C[C@H](Cc2cccc(C#N)c2)CN1 [compound 1429, (2R,4S)—N—((S)-1-(((6-Amino-2-methylpyridin-3-yl)methyl)amino)-1-oxopropan-2-yl)-4-(3-cyanobenzyl)pyrrolidine-2-carboxamide Di-trifluoroacetate salt]
pIC50 (Lectin Pathway): 5.30 to 6.30 | Ki (human α-thrombin): 2.5 to 10 µM | pKi (MASP-2 (CCP1-CCP2-SP)): > 6.30 | MASP-2 vs. thrombin selectivity (MASP-2 (CCP1-CCP2-SP)): **** (≥100-fold) | pKi (mMASP-2): > 6.30

Cc1nc(N)ccc1CNC(=O)[C@H](C)NC(=O)[C@H]1C[C@H](Cc2ccc(Oc3ccccc3)cc2)CN1 [compound 1430, (2R,4S)—N—((S)-1-(((6-Amino-2-methylpyridin-3-yl)methyl)amino)-1-oxopropan-2-yl)-4-(4-phenoxybenzyl)pyrrolidine-2-carboxamide Di-trifluoroacetate salt]
pIC50 (Lectin Pathway): 5.30 to 6.30 | pKi (human α-thrombin): < 4.60 | pKi (MASP-2 (CCP1-CCP2-SP)): > 6.30 | MASP-2 vs. thrombin selectivity (MASP-2 (CCP1-CCP2-SP)): **** (≥100-fold) | pKi (mMASP-2): > 6.30

Cc1nc(N)ccc1CNC(=O)[C@H](C)NC(=O)[C@H]1C[C@H](Cc2ccc(C#N)c3ccccc23)CN1 [compound 1431, (2R,4S)—N—((S)-1-(((6-Amino-2-methylpyridin-3-yl)methyl)amino)-1-oxopropan-2-yl)-4-((4-cyanonaphthalen-1-yl)methyl)pyrrolidine-2-carboxamide Dihydrochloride]
pIC50 (Lectin Pathway): 6.30 to 7.30 | Ki (human α-thrombin): 10 to 25 µM | pKi (MASP-2 (CCP1-CCP2-SP)): > 6.30 | MASP-2 vs. thrombin selectivity (MASP-2 (CCP1-CCP2-SP)): **** (≥100-fold) | pKi (mMASP-2): > 6.30

Cc1nc(N)ccc1CNC(=O)[C@H](C)NC(=O)[C@H]1C[C@H](Cc2cc(Cl)cc3ccccc23)CN1 [compound 1432, (2R,4S)—N—((S)-1-(((6-Amino-2-methylpyridin-3-yl)methyl)amino)-1-oxopropan-2-yl)-4-((3-chloronaphthalen-1-yl)methyl)pyrrolidine-2-carboxamide Dihydrochloride]
pIC50 (Lectin Pathway): 5.30 to 6.30 | Ki (human α-thrombin): 10 to 25 µM | pKi (MASP-2 (CCP1-CCP2-SP)): > 6.30 | MASP-2 vs. thrombin selectivity (MASP-2 (CCP1-CCP2-SP)): **** (≥100-fold) | pKi (mMASP-2): > 6.30

C[C@H](NC(=O)[C@H]1C[C@@H](c2ccccc2)CCN1)C(=O)NCc1cnc2[nH]cc(Cl)c2c1 [compound 1433, (2R,4S)—N—((S)-1-(((3-Chloro-1H-pyrrolo[2,3-b]pyridin-5-yl)methyl)amino)-1-oxopropan-2-yl)-4-phenylpiperidine-2-carboxamide]
pIC50 (Lectin Pathway): 6.30 to 7.30 | Ki (human α-thrombin): 0.5 to 2.5 µM | pKi (MASP-2 (CCP1-CCP2-SP)): > 6.30 | MASP-2 vs. thrombin selectivity (MASP-2 (CCP1-CCP2-SP)): **** (≥100-fold) | pKi (mMASP-2): > 6.30

Cc1nc(N)ccc1CNC(=O)[C@H](C)NC(=O)[C@H]1C[C@H](Cc2cc(Cl)cc(Cl)c2)CN1 [compound 1435, (2R,4S)—N—((S)-1-(((6-Amino-2-methylpyridin-3-yl)methyl)amino)-1-oxopropan-2-yl)-4-(3,5-dichlorobenzyl)pyrrolidine-2-carboxamide Dihydrochloride]
pIC50 (Lectin Pathway): 5.30 to 6.30 | Ki (human α-thrombin): 10 to 25 µM | pKi (MASP-2 (CCP1-CCP2-SP)): > 6.30 | MASP-2 vs. thrombin selectivity (MASP-2 (CCP1-CCP2-SP)): **** (≥100-fold) | pKi (mMASP-2): > 6.30

Cc1nc(N)ccc1CNC(=O)[C@@H]1CCN1C(=O)[C@H]1C[C@H](Cc2ccc(Br)cc2)CN1 [compound 1438, (S)—N-((6-Amino-2-methylpyridin-3-yl)methyl)-1-((2R,4S)-4-(4-bromobenzyl)pyrrolidine-2-carbonyl)azetidine-2-carboxamide Di-trifluoroacetate salt]
pIC50 (Lectin Pathway): 5.30 to 6.30 | pKi (human α-thrombin): > 6.30 | pKi (MASP-2 (CCP1-CCP2-SP)): > 6.30 | MASP-2 vs. thrombin selectivity (MASP-2 (CCP1-CCP2-SP)): ** (≥5.0 to <25-fold) | pKi (mMASP-2): 5.60 to 6.30

Cc1nc(N)ccc1CNC(=O)[C@H](C)NC(=O)[C@H]1C[C@@H](c2ccccc2)CCN1C [compound 1441, (2R,4S)—N—((S)-1-(((6-Amino-2-methylpyridin-3-yl)methyl)amino)-1-oxopropan-2-yl)-1-methyl-4-phenylpiperidine-2-carboxamide]
pIC50 (Lectin Pathway): 6.30 to 7.30 | pKi (human α-thrombin): < 4.60 | pKi (MASP-2 (CCP1-CCP2-SP)): > 6.30 | pKi (mMASP-2): > 6.30

Cc1nc(N)ccc1CNC(=O)[C@H](C)NC(=O)[C@H]1C[C@H](Cc2ccc(Cl)cc2Cl)CN1 [compound 1443, (2R,4S)—N—((S)-1-(((6-Amino-2-methylpyridin-3-yl)methyl)amino)-1-oxopropan-2-yl)-4-(2,4-dichlorobenzyl)pyrrolidine-2-carboxamide Dihydrochloride]
pIC50 (Lectin Pathway): 5.30 to 6.30 | Ki (human α-thrombin): 0.5 to 2.5 µM | pKi (MASP-2 (CCP1-CCP2-SP)): > 6.30 | MASP-2 vs. thrombin selectivity (MASP-2 (CCP1-CCP2-SP)): *** (≥25 to <100-fold) | pKi (mMASP-2): > 6.30

Cc1nc(N)ccc1CNC(=O)[C@H](C)NC(=O)[C@H]1C[C@H](Cc2cc(Cl)ccc2Cl)CN1 [compound 1444, (2R,4S)—N—((S)-1-(((6-Amino-2-methylpyridin-3-yl)methyl)amino)-1-oxopropan-2-yl)-4-(2,5-dichlorobenzyl)pyrrolidine-2-carboxamide Dihydrochloride]
pIC50 (Lectin Pathway): 5.30 to 6.30 | pKi (human α-thrombin): > 6.30 | pKi (MASP-2 (CCP1-CCP2-SP)): > 6.30 | MASP-2 vs. thrombin selectivity (MASP-2 (CCP1-CCP2-SP)): ** (≥5.0 to <25-fold) | pKi (mMASP-2): > 6.30
